Tested on: 83 tyrosine kinases
Assay: Panel of 83 TR-FRET tyrosine kinase assays
Assay type: biochemical
Settings: 83 tyrosine kinases tested; conditions of Example 1
Procedure: TR-FRET kinase assays are performed under standardized conditions: various individual kinases are incubated with 50 nM of kinase substrate BRB1 labeled with the TR-FRET acceptor dye ULight (PerkinElmer) and 200 micromolar ATP in 10 μL of kinase assay buffer (50 mM HEPES pH7.5, 10 mM MgCl2, 3 mM MnCl2, 1 mM EGTA, 2 mM DTT and 0.01% Tween-20) for 2 hours at room temperature. Reactions are stopped with EDTA, and anti-phospho-tyrosine antibodies (clone PT66) labeled with the TR-FRET europium chelate donor dye are added to a final concentration of 2 nM in a final volume of 20 μL. The TR-FRET signal emitted at 665 nm is read one hour after the addition of antibodies using a TR-FRET plate reader such as the Envision® Multilabel Plate reader (PerkinElmer). The emitted signal at 665 nm is proportional to the extent of peptide phosphorylation, Control reactions indicative of background are performed excluding ATP from the reaction.
Assay conditions are identical to those used described for FIG. 1.
The BRB2 peptide is tested with 83 tyrosine kinases in assay conditions identical to those used for BRB1 in Example 1. Data obtained with BRB2 indicate that the peptide is phosphorylated by 65 kinases out of 83 (78%), with signal to noise ratio of >3.

Number of kinases out of 83 that phosphorylated the peptide with signal to noise ratio of >3: 65 | Percentage of 83 kinases that phosphorylated the peptide with signal to noise ratio of >3: 78%
Sequence: CGG E AYE AYE AYE AYA EYE ARR (CGGEAYEAYEAYEAYAEYEARR; tyrosine kinase substrate peptide) [BRB2]
